From patent US6716605B2, “Indole derivatives having an antiviral activity” (Shionogi & Co., Ltd., priority 1998, dated 2004) come the findings set out here.

pIC50: −log10 of the molar value.

One series deals with HIV-1 integrase (Human immunodeficiency virus type 1 group M subtype B, UniProt P04585). The series can be described thus: HIV-1 integrase inhibition assay (microtiter plate, substrate DNA/target DNA, OD 405 nm). The series is classed as biochemical. The method, then: The DNA solutions were annealed with each complement by slowly cooling after heating.
After coating each well of microtiter plates (obtained from NUNC) with 50 μl of the above solution at 4° C. overnight, each well was washed twice with PBS (composition: […], 0.27 mM KCl, 0.43 mM Na2HPO4, 0.14 mM KH2PO4) and blocked with 300 μl of 1% skim milk in PBS for 30 min. Additionally, each well was washed twice with PBS and added 50 μl of substrate DNA solution (2 pmol/μl). The microtiter plates were kept at room temperature for 30 min. Then, each well was washed twice with PBS and once with H2O.
The microtiter plates were incubated at 30° C. for 1 hour. […] Then, each well was washed twice with 0.05% Tween20 in PBS and once with PBS. […] The optical density (OD) at 405 nm of each well was measured and the percent inhibition was determined by the following expression.

Usually pIC50 stands for −log10 of the IC50, conventionally taken in molar units. `O=C(O)C(O)=CC(=O)c1cn(S(=O)(=O)c2ccccc2)c2ccc(Cl)cc12` [Example 23(2), 4-(1-Benzenesulfonyl-5-chloroindol-3-yl)-2-hydroxy-4-oxo-2butenoic acid]: the pIC50 at HIV-1 integrase was 6.49.

As usually defined, the melting point is the temperature of the solid-liquid transition. Take `O=C(/C=C(\O)c1nc[nH]n1)c1cn(S(=O)(=O)c2ccccc2)c2cc(Cl)ccc12`: the melting point was in the range of 265 to 270 °C. `O=C(/C=C(\O)c1ncc[nH]1)c1c[nH]c2ccc(Cl)cc12` yielded a melting point of 272 to 276 °C. Regarding `O=C(OC(c1ccccc1)c1ccccc1)C(O)=CC(=O)c1cn(C(=O)c2ccc(F)cc2)c2ccc(Cl)cc12`, the melting point lay within 198 to 200 °C. With `O=C(O)c1cccc(C(O)=CC(=O)c2cn(S(=O)(=O)c3ccccc3)c3ccc(Cl)cc23)c1`, the melting point is 245 to 255 °C (dec.). With `O=C(/C=C(\O)c1nc[nH]n1)c1cn(S(=O)(=O)c2ccc(F)cc2)c2ccc(Br)cc12`, the melting point lay within 266 to 270 °C. Regarding `O=C(O)/C(O)=C/C(=O)c1cn(Cc2ccc(C(=O)O)cc2)c2ccc(Cl)cc12`, the melting point is 245 °C (dec.).

With `COc1ccccc1Cc1[nH]c2ccc(Cl)cc2c1C(=O)/C=C(\O)c1nn[nH]n1`, the melting point was 245 °C (dec.). Regarding `O=C(/C=C(\O)c1nccs1)c1cn(S(=O)(=O)c2ccccc2)c2ccc(Cl)cc12`, the melting point fell in the range of 191 to 194 °C. Regarding `O=C(/C=C(\O)c1nn[nH]n1)c1cn(Cc2ccccc2)c2c(Cl)cccc12`, the melting point is 252 °C (dec.). For `O=C(C=C(O)c1nn[nH]n1)c1cn(Cc2ccccc2)c2ccc(Cl)cc12` [Example 81], the melting point was greater than 240 °C. In addition, the negative-log IC50 (pIC50) on HIV-1 integrase is 5.02.

For the molecule `O=C(/C=C(\O)c1nn[nH]n1)c1c(CCCc2ccc(F)cc2)[nH]c2ccc(Cl)cc12`, the melting point was 181 to 182 °C (dec.). In turn, `COC(=O)/C(O)=C/C(=O)c1c(Cc2ccc(F)cc2)[nH]c2ccc(Cl)cc12` came in with a melting point of 235 to 238 °C. With `CNC(=CC(=O)c1cn(Cc2ccccc2)c2ccc(Cl)cc12)C(=O)O`, the melting point was 205 to 210 °C (dec.). With `COc1ccccc1Cn1cc(C(=O)/C=C(\O)c2nn[nH]n2)c2cc(Cl)ccc21`, the melting point is 256 °C (dec.). The same measure, in the same setting: the value for `O=C(/C=C(\O)c1nn[nH]n1)c1c([S+]([O-])c2cc(Cl)cc(Cl)c2)[nH]c2ccc(Cl)cc12` (stereo not shown) was 200 to 204 °C (dec.); that for `CCOCCNC(=CC(=O)c1cn(Cc2ccccc2)c2ccc(Cl)cc12)C(=O)OCC` was 73 to 74 °C; that for `O=C(/C=C(\O)c1nc[nH]n1)c1cn(S(=O)(=O)c2ccc(F)cc2)c2cc(Cl)ccc12` was 293 to 298 °C (dec.).

The molecule `CCOC(=O)C(=CC(=O)c1cn(Cc2ccccc2)c2ccc(Cl)cc12)NC` registered a melting point of 131 to 132 °C. Still for that read-out and setting: the value for `O=C(/C=C(\O)c1nc[nH]n1)c1cn(Cc2ccccc2)c2ccc(Cl)cc12` was 264 to 265 °C.

In the case of `O=C(C=C(O)c1nc[nH]n1)c1c[nH]c2ccc(Cl)cc12` [Example 71], the melting point lay within 277 to 279 °C. In addition, the pIC50 at HIV-1 integrase is 5.29. Turning to `CCOC(=O)C(N)=CC(=O)c1c[nH]c2ccccc12`, the melting point is 200 to 205 °C. `O=C(/C=C(\O)c1nc[nH]n1)c1cn(S(=O)(=O)c2ccccc2)c2ccc(Br)cc12`: the melting point is 290 to 295 °C (dec.). Molecule `O=C(/C=C(\O)c1nc[nH]n1)c1cn(Cc2ccc(F)cc2)c2cc(Cl)ccc12` displayed a melting point of 260 to 263 °C. `O=C(/C=C(\O)c1nccs1)c1c[nH]c2ccc(Cl)cc12`: the melting point was 226 to 227 °C. `O=C(/C=C(\O)c1nc[nH]n1)c1cn(S(=O)(=O)c2cc(Cl)ccc2Cl)c2ccc(Cl)cc12` yielded a melting point of 301 to 302 °C. As to `CCOCCNC(=CC(=O)c1cn(Cc2ccccc2)c2ccc(Cl)cc12)C(=O)O`, the melting point is 184 to 186 °C (dec.).

Consider `O=C(O)c1cccc(C(O)=CC(=O)c2c[nH]c3ccc(Cl)cc23)c1`, for which the melting point was > 270 °C (dec.).

For the molecule `O=C(C=C(O)c1nn[nH]n1)c1cn(S(=O)(=O)c2cccs2)c2ccc(Cl)cc12` [Example 80], the melting point is 243 °C. Further, the pIC50 on HIV-1 integrase is 5.12. On to `O=C(O)C(O)=CC(=O)c1cn(C(=O)c2ccc(F)cc2)c2ccc(Cl)cc12`, for which the melting point lay in the range of 213 to 218 °C.

Take `O=C(/C=C(\O)c1nc[nH]n1)c1cn(Cc2ccc(F)cc2)c2ccc(Br)cc12`: the melting point is 265 to 268 °C.
